Tests used:
cholesterol biosynthesis = assay: Cholesterol biosynthesis inhibitory activity: cholesterol synthesis from [2-14C] acetic acid in rat liver slices; format: cell-based; conditions: for effect on cholesterol synthesis from [2-14C] acetic acid (in words): 20 μM; for activity at 20 µM: 37° C., 2 hours, No addition = 100 ± 0
Procedure: (§1) Squalene synthetase inhibitory activity and cholesterol biosynthesis inhibitory activity of the compounds used in the present invention were determined by the following method.
Determination of cholesterol biosynthesis Inhibitory activity
The liver was excised from Sprague-Dawley rat (6 weeks old, male) under full feeding and sliced into 500 μm in thickness. The slices of liver (150-200 mg) and KHB buffer solution (1 ml) containing 0.5 μCi [2-^14 C] acetic acid and various concentrations of test compounds were incubated at 37° C. for 2 hours. Cholesterol was extracted from the reaction mixture. The amount of cholesterol synthesized from the labeled acetic acid was measured, and the inhibitory ratio was calculated in comparison with the synthesized amount in the case of no addition of the test compounds.
The effect of Compound No. 22 (Example 39 described in Japanese Patent Application No. 3-151484) (added in 20 μM), 67, 74 and 75 on cholesterol synthesis from [2-^14 C] acetic acid in assay using liver slices of rats was observed.

squalene synthetase [1] = molecular target: T1, squalene synthetase (Rattus norvegicus, UniProt Q02769); assay: Squalene synthetase inhibitory activity, rat enzyme (rat liver microsome fraction); format: biochemical; conditions: 5 μM [1-3H]farnesylpyrophosphoric acid, pH 7.4, 37° C., 45 minutes, read-out: IC50, squalene synthetase inhibitory activity, Rat enzyme
T1 construct: from tissue; host or cells: liver of male SD rats (microsome fraction)
T1 sequence (Q02769 1-416): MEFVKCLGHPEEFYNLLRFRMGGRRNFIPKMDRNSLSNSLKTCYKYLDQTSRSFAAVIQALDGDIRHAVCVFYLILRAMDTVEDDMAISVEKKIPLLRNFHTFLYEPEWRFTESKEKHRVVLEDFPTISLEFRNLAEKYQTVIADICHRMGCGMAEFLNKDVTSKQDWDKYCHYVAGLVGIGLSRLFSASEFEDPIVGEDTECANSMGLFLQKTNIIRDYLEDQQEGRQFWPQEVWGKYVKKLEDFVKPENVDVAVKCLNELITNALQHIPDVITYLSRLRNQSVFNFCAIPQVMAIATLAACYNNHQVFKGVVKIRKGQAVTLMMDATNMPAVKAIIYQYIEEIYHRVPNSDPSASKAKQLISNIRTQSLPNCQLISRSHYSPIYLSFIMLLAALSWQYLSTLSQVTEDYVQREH
Procedure: as §1
(§2) Determination of squalene synthetase inhibitory activity
(§3) The squalene synthetase inhibitory activity was determined as follows by using the enzyme solutions shown in Experiments 1 and 2 below.
(§4) Each enzyme solution (Protein: 0.8 μg) prepared in Experiments 1 and 2 was added to a solution (total amount: 50 μl) containing 5 μM[1-^3 H]farnesylpyrophosphoric acid (Specific activity 25 μCi/μmole), 1 mM NADPH, 5 mM MgCl2, 6 mM glutathione, 100 mM potassium phosphate buffer (pH 7.4) and a drug to be tested (which was added as a solution thereof in water or DMSO). The mixture was allowed to react at 37° C. for 45 minutes. A mixture (150 μl) of chloroform and methanol (1:2) was added to stop the reaction. Then, chloroform (50 μl) and 3N sodium hydroxide solution (50 μl) were added. The chloroform layer (under layer, 50 μl) containing the reaction products in which the major component was squalene was mixed with toluene liquid scintillator (3 ml). The radioactivity was measured with a liquid scintillation counter.
(§5) The squalene synthetase inhibitory activity is indicated by the concentration (IC50, molarity(M)) which inhibits the radioactivity incorporated into the chloroform layer by 50%.
Preparation of rat enzyme
SD-Male rats (6 weeks old) were bled to death followed by removal of liver. The liver (ca. 10 g) was washed with ice-cooled physiological saline, homogenized in an ice-cooled buffer solution (15 ml) [100 mM potassium phosphate (pH 7.4), 15 mM nicotinamide, 2 mM MgCl2 ] and centrifuged at 10,000×g for 20 minutes (4° C.). The resulting supernatant was further centrifuged at 105,000×g for 90 minutes (4° C.). Then, the deposit was suspended in an ice-cooled 100 mM potassium phosphate buffer solution (pH 7.4) and centrifuged at 105,000×g for 90 minutes (4° C.) again. The deposit (microsome fraction) thus obtained was suspended in an ice-cooled 100 mM potassium phosphate buffer solution (pH 7.4) so that the protein concentration became about 40 mg/ml (measured with BCA Protein Assay Kit (Pias)), and the suspension was used as the enzyme solution.

squalene synthetase [2] = molecular target: T2, squalene synthetase (Homo sapiens, UniProt P37268); assay: Squalene synthetase inhibitory activity, human enzyme (HepG2 microsome fraction); format: biochemical; conditions: human hepatoma HepG2 microsome fraction; 5 μM [1-3H]farnesylpyrophosphoric acid, pH 7.4, 37° C., 45 minutes; read-out: IC50, squalene synthetase inhibitory activity, Human enzyme
T2 construct: From the resulting sonicate, microsome fraction was obtained according to the same manner as that described in Experiment 1; endogenous in cells; host or cells: HepG2 human hepatoma cells (microsome fraction)
T2 sequence (P37268 1-417): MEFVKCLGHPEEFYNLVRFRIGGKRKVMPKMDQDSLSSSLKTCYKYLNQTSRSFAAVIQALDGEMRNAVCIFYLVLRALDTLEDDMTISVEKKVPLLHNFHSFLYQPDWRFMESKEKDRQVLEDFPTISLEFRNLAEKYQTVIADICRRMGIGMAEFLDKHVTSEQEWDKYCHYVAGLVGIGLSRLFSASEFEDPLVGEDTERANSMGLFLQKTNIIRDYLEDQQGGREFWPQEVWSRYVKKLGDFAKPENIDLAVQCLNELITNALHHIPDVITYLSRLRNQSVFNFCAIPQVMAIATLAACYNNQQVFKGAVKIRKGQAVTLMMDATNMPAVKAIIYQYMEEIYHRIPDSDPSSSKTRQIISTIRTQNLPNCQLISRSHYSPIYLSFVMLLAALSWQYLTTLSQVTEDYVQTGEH
Procedure: as §1, §2, §3, §4, §5
Preparation of human enzyme
Cultivation was carried out on Dulbecco modified Eagle medium containing 10% bovine fetal serum in the presence of 5% CO2 at 37° C. The human hepatoma cells HepG2 (ca. 1×10^9 cells) were suspended in an ice-cooled buffer solution (10 ml) [100 mM potassium phosphate (pH 7.4), 30 mM nicotinamide, 2.5 mM MgCl2 ], and the cells were crushed by ultrasonication (30 seconds, twice). From the resulting sonicate, microsome fraction was obtained according to the same manner as that described in Experiment 1. This microsome fraction was suspended in an ice-cooled 100 mM potassium phosphate buffer solution (pH 7.4) so that the protein concentration became about 4 mg/ml, and this suspension was used as the enzyme liquid.

Compound	effect on cholesterol synthesis from [2-14C] acetic acid (in words) (cholesterol biosynthesis)	activity at 20 µM (cholesterol biosynthesis) [%]	IC50 (squalene synthetase [1]) [nM]	IC50 (squalene synthetase [2]) [nM]
O=P(O)(O)C(NCCCCCCSc1ccccc1)P(=O)(O)O [compound 22]	significant inhibition of cholesterol biosynthesis	52.9 ± 10		
COc1ccc(CSCCCCCCNC(P(=O)(O)O)P(=O)(O)O)cc1 [compound 67]	significant inhibition of cholesterol biosynthesis	43.4 ± 5	8.7	9.3
O=P(O)(O)C(NCCCCCCSc1nccs1)P(=O)(O)O [compound 74]	significant inhibition of cholesterol biosynthesis	35.8 ± 0.8		
Cc1nnc(SCCCCCCNC(P(=O)(O)O)P(=O)(O)O)s1 [compound 75]	significant inhibition of cholesterol biosynthesis	50 ± 7.9		
CC(C)=CCC/C(C)=C/CC/C(C)=C/CC(P(=O)(O)O)P(=O)(O)O [compound 106, trisodium (E,E)-farnesylmethylenebisphosphonate]			62	110
(E,E)-farnesylaminomethylenebisphosphonic acid diethyl ester disodium salt [Compound No. 112]			3300	8200

— patent publication US5624917A, “Method of inhibiting squalene synthetase” (Takeda Chemical Industries, Ltd., priority 1991, dated 1997)
